Measured values taken from patent US20040102454A1, “Phenylahistin and the phenylahistin analogs, a new class of anti-tumor compounds” (priority 1998, published 2004).

Legend:
[1] = system: DMS273; assay: HCC panel assay, sulforhodamine B; format: cell-based; conditions: DMS273, Lung, (−)-PLH content 24.1%
Experimental: (§1) The antitumor activity of PLH was evaluated by the Human Cancer Cell Line Panel (HCC panel) assay, see Yamori T., Jap. J Cancer Chemother., (1997), 24, 129-35. This HCC panel consists of 38 tumor cell lines including 7 lung cancer, 6 stomach, 6 colon, 5 ovary, 6 central nerve system, 5 breast, 2 kidney and 1 melanoma cell lines. Each tumor cell was seeded in 96-well tissue culture plates and incubated overnight. Various concentrations (5 doses; final 10^−4, 10^−5, 10^−6, 10^−7 and 10^−8 M) of PLH were added, and the cells were incubated for 48 hours. […] All mice were obtained from Japan SLC (Shizuoka, Japan), P388 leukemia cells were obtained from Dainippon Pharmaceuticals Inc. (Osaka, Japan), Lewis Lung Carcinoma from Riken Cell Bank (Tsukuba, Japan), and Colon 26 cells from the National Cancer Center, Japan (Tokyo, Japan).

[2] = system: KM-12; assay: HCC panel assay, sulforhodamine B; format: cell-based; conditions: KM-12, Colon, (−)-PLH content 24.1%
Experimental: as §1

[3] = system: MKN7; assay: HCC panel assay, sulforhodamine B; format: cell-based; conditions: MKN7, Stomach, (−)-PLH content 24.1%
Experimental: as §1

[4] = system: NCI-H23; assay: HCC panel assay, sulforhodamine B; format: cell-based; conditions: NCI-H23, Lung, (−)-PLH content 24.1%
Experimental: as §1

[5] = system: SF-295; assay: HCC panel assay, sulforhodamine B; format: cell-based; conditions: SF-295, CNS, (−)-PLH content 24.1%
Experimental: as §1

[6] = system: SK-OV-3; assay: HCC panel assay, sulforhodamine B; format: cell-based; conditions: SK-OV-3, Ovary, (−)-PLH content 24.1%
Experimental: as §1

[7] = system: WiDr; assay: HCC panel assay, sulforhodamine B; format: cell-based; conditions: Colon, (−)-PLH content 24.1%
Experimental: as §1

[8] = system: P388 murine leukemia cells; assay: Cytotoxic effects of the phenylahistin enantiomers (Example 8); format: cell-based; conditions: Mus musculus, (−) 92.2% e.e., (+) 97.8% e.e.
From the text: The cytotoxic effects of the enantiomers of phenylahistin on P388 murine leukemia cells were examined. […] Judging from the content of (−)-phenylahistin in (+)-phenylahistin, (+)-phenylahistin was considered to have relatively low cytotoxicity to P388 cells.

[9] = system: Microtubule protein; assay: Electron microscopy of microtubule protein polymerization; format: biochemical, bovine; conditions: 100 μM, 37° C. for 20 min
Experimental: Microtubule protein (1.5 mg/ml) was polymerized at 37° C. for 20 min in the presence of 100 μM (−)-PLH or vehicle (DMSO). A portion of each sample was diluted 5-fold with 1% glutaraldehyde in the microtubule assembly buffer. Samples were then placed on formvar- and carbon-coated grids, stained with 2% uranyl acetate, and examined using a JEOLJEM-1200 EXII electron microscope JEOL (Tokyo, Japan).

[10] = system: A-431 (damal); assay: Antiproliferative activity, MTT assay (Table 7); format: cell-based; conditions: Homo sapiens, optical purity over 99.8%
Experimental: (§2) In order to examine detailed biological activity, especially antitumor activity of both (+)- and (−)-phenylahistin, resolution of (+)- and (−)-phenylahistin using chiral HPLC was conducted. By repeating chiral separation twice or three times, each enantiomer with an optical purity over 99.8% was obtained, and each enantiomer was recrystallizes from ethanol-hexane mixture.
(§3) Antitumor activity of (+)- and (−)-phenylahistin was examined against seven human cancer cell lines including A431, WiDr, TE-671, Hela, MCF7, A-549 and K562 cells.

[11] = system: A549 (lung); assay: Antiproliferative activity, MTT assay (Table 7); format: cell-based; conditions: Homo sapiens, optical purity over 99.8%
Experimental: as §2, §3

[12] = system: Hela (ovary); assay: Antiproliferative activity, MTT assay (Table 7); format: cell-based; conditions: Homo sapiens, optical purity over 99.8%
Experimental: as §2, §3

[13] = system: K562 (leukemia); assay: Antiproliferative activity, MTT assay (Table 7); format: cell-based; conditions: Homo sapiens, optical purity over 99.8%
Experimental: as §2, §3

[14] = system: MCF7 (breast); assay: Antiproliferative activity, MTT assay (Table 7); format: cell-based; conditions: Homo sapiens, optical purity over 99.8%
Experimental: as §2, §3

[15] = system: WiDr (colon); assay: Antiproliferative activity, MTT assay (Table 7); format: cell-based; conditions: Homo sapiens, optical purity over 99.8%
Experimental: as §2, §3

[16] = system: A. fumigatus isolate #1; assay: Antifungal susceptibility testing, broth dilution (NCCLS M38-A); format: cell-based; conditions: Aspergillus fumigatus, 80% reduction in turbidity
Experimental: (§4) Antifungal susceptibility testing was accomplished according to the methods outlined in the National Committee for Clinical Laboratory Standards, M38-A “Reference Method for Broth Dilution Antifungal Susceptibility Testing of Conidium-Forming Filamentous Fungi; Approved Standard.” This includes testing in RPMI-1640 with glutamine and without bicarbonate, an inoculum size of 0.4-5×10^4, and incubation at 30 or 35° C. for 48 hours. […] Drug concentrations were 0.03-16 μg/ml for the investigational compounds, 0.015-8 μg/ml for itraconazole and griseofulvin.
(§5) The minimum lethal concentration (MLC) was determined by plating […] from the MIC concentration and each concentration above the MIC. […] When a MIC was obtained, a minimum fungicidal concentration (MFC) was determined to assess the fungistatic/fungicidal nature of the compound. […] The compound is scored as fungistatic if the cells are able to resume growth and fungicidal if no regrowth is possible because the compound had killed the organisms.

[17] = system: A. fumigatus isolate #2; assay: as above; format: cell-based; conditions: Aspergillus fumigatus, 80% reduction in turbidity
Experimental: as §4, §5

[18] = Homo sapiens, read-out: GL50 (the source's name)
[19] = Homo sapiens, read-out: LC50 (the source's name)

C=CC(C)(C)c1[nH]cnc1/C=C1\NC(=O)[C@H](Cc2ccccc2)NC1=O (racemic) [PLH, phenylahistin]
TGI [1]: >100000 nM | IC50 ([1]; Homo sapiens, DMS-273, read-out: GL50 (the source's name)): 290 nM | CC50 ([1]; Homo sapiens, DMS-273, read-out: LC50 (the source's name)): > 100000 nM | IC50 ([2]; Homo sapiens, KM12, read-out: GL50 (the source's name)): 380 nM | CC50 ([2]; Homo sapiens, KM12, read-out: LC50 (the source's name)): > 100000 nM | TGI [2]: >100000 nM | IC50 ([3]; Homo sapiens, MKN-7, read-out: GL50 (the source's name)): 390 nM | CC50 ([3]; Homo sapiens, MKN-7, read-out: LC50 (the source's name)): > 100000 nM | TGI [3]: >100000 nM | IC50 [4, 18]: 910 nM | CC50 [4, 19]: > 100000 nM | TGI [4]: 92000 nM | IC50 [5, 18]: 320 nM | CC50 [5, 19]: > 100000 nM | TGI [5]: 2400 nM | IC50 [6, 18]: 370 nM | CC50 [6, 19]: > 100000 nM | TGI [6]: >100000 nM | TGI [7]: 790 nM | IC50 [7, 18]: 270 nM | CC50 [7, 19]: > 100000 nM

C=CC(C)(C)c1[nH]cnc1/C=C1\NC(=O)[C@H](Cc2ccccc2)NC1=O [(−)-phenylahistin]
IC50 [8]: 350 nM | microtubule structures by electron microscopy [9]: did not contain such structures | IC50 [10]: 220 nM | IC50 [11]: 300 nM | IC50 [12]: 200 nM | IC50 [13]: 190 nM | IC50 [14]: 330 nM | IC50 [15]: 180 nM | MIC [16]: > 16 µg/mL | MIC [17]: > 16 µg/mL
